Laboratory results taken from US20250084078A1, “FUSED RING-SUBSTITUTED SIX-MEMBERED HETEROCYCLIC COMPOUND, AND PREPARATION METHOD THEREFOR AND USE THEREOF” (GENFLEFT THERAPEUTICS (SHANGHAI) INC., priority 2022, published 2025).

Key:
HPK1 [1] = molecular target: HPK1 (Homo sapiens, UniProt Q92918); test: SLP76 phosphorylation assay (intracellular HPK1 inhibitory activity, p-SLP76 S376 ELISA in Jurkat cells); details: p-SLP76 IC50, Jurkat, Clone E6-1 cells; 1 h compound pre-incubation; anti-CD3 beads stimulation 20 min; Phospho-SLP-76 (Ser376) ELISA
Target sequence in this assay (Q92918 whole entry): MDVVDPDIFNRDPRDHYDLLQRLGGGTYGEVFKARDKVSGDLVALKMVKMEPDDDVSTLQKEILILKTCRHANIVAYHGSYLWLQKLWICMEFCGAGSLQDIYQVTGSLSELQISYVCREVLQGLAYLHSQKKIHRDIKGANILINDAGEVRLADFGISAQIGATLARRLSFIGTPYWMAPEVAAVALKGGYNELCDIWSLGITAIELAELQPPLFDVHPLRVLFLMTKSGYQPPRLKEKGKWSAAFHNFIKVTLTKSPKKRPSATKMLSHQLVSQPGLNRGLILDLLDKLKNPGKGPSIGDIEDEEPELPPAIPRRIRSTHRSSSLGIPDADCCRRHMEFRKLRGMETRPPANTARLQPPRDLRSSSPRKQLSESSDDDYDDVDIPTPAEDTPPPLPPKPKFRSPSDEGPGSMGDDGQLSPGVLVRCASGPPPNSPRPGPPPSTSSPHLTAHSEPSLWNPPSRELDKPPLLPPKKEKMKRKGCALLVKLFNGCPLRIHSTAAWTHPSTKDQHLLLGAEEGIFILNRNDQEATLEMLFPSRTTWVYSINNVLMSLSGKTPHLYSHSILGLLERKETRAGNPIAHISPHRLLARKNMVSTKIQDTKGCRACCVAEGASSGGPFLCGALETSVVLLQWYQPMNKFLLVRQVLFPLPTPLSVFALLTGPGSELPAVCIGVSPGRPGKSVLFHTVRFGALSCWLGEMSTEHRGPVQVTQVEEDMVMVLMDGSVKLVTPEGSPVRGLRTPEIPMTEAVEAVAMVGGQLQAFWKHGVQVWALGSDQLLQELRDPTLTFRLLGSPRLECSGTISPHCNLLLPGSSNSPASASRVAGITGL
Experimental: SLP76 Phosphorylation Assay
Intracellular HPK1 inhibitory activity was tested by the detection of SLP76 phosphorylation at S376.
(§1) Preparation of 1000× drug stock plate: a 1000× compound stock plate was prepared. […] The compound stock plate was sealed with a sealing film and stored in a −20° C. refrigerator for later use.
Preparation of Beads wash buffer: 0.1 mL FBS and 0.4 mL 0.5 M EDTA (with a final concentration of 2 mM) were added to 100 mL PBS and stored in a 4° C. refrigerator for later use.
100× Protease Inhibitor Cocktail in 1/20 total volume was added and stored on wet ice for later use. The buffer was ready to use.
Cell inoculation and dosing: the 1000× drug stock plate was taken and melted at room temperature in the dark. […] Jurkat cells in the logarithmic growth phase were selected and collected. […] The cells were inoculated into a 96-well plate (the volume was 90 μL per well), and a blank control well (without cells inoculation, and in which 110 μL of medium was added) was set. 10 μL of a drug-containing culture medium (10×) was transferred from the 10× drug intermediate plate into the 96-well cell plate (with a final concentration of 0.1% DMSO), and set a DMSO control group (in which 0.1% DMSO was added to the treated cells), a stimulated control group (in which 10 μL of culture medium was added to treat cells) and an unstimulated group (in which 10 μL of culture medium was added to treat cells). The wells were duplicated, gently patted, mixed, and then placed into a 5% CO2 incubator at 37° C. for 1 h.
Anti-CD3 beads stimulation: Dynabeads anti-human CD3 was taken, shaken, and mixed for 60 s. The required volume of beads was pipetted, and an equal volume or at least 1 mL of washing solution was added to wash once. Fresh complete medium was then added to resuspend and adjust the density of the beads to 4×10^7/mL, and the beads were placed on ice for later use. At the end of drug pre-incubation, the cell culture plate was taken out. 10 μL Dynabeads anti-human CD3 was added to each well to treat the cells, and 10 μL the culture medium was added to the unstimulated group. The cell culture plate was shaken to mix well at 2500 rpm for 10 s, and then placed into a 5% CO2 incubator at 37° C. and continued to culture for 20 min.
Detection of p-SLP76 protein level: PathScan Phospho-SLP-76 (Ser376) Sandwich ELISA Kit was applied to detect p-SLP76 protein level. At the end of the Anti-CD3 beads stimulation, the cell culture plate was removed from the incubator. […] After lysis, the cell culture plate was centrifuged at 4° C., 400×g for 5 min. 25 μL of sample and 75 μL of sample diluent were added to each well, and the plate was placed in a 5% CO2 incubator at 37° C. for 2 h. The subsequent detection steps were carried out following the kit instructions, and the absorbance (OD value) of each well was read at 450 nm by a microplate reader.

HPK1 [2] = molecular target: T1, HPK1 (Homo sapiens, UniProt Q92918); test: HPK1 kinase activity assay (ADP-Glo); details: HPK1 Kinase activity IC50, ADP-Glo; 1 nM HPK1, 10 μM ATP, 0.1 μg/μL MBP
T1 sequence (Q92918 1-346): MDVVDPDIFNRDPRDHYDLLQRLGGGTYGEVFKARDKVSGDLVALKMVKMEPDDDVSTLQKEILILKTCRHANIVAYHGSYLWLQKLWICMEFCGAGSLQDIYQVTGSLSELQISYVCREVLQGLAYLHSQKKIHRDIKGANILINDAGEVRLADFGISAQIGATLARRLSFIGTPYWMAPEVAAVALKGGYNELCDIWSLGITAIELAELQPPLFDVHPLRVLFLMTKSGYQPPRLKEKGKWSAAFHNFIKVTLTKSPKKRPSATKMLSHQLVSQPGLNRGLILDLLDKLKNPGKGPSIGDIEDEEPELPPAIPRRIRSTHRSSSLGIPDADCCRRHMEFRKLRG
Experimental: Preparation of buffer: Ix reaction buffer (40 mM Tris-HCl, 20 mM MgCl2, 0.01% Brij35, 50 μM DTT, 0.1 mg/ml BSA) was prepared using sterile water, which was prepared and used on the day of the experiment.
as §1
Compound preparation and dosing: the 1000× drug stock plate was taken and melted at room temperature in the dark. Then 5× drug intermediate plate was prepared using reaction buffer and mixed well. 2 μL was transferred from the 5× drug intermediate plate into a 384-well plate, and negative control well and positive control well (in which 2 μL reaction buffer containing 0.5% DMSO was added) were set. Each point was repeated twice.
Preparation and incubation of reaction mixture: HPK1 protein was diluted to a 2.5× working solution with reaction buffer. 4 μL 2.5×HPK1 protein was added to each well containing test compound and positive control well, and 4 μL of reaction buffer without HPK1 protein was added to the negative control well. The obtained mixture was centrifuged at 1000 rpm for 1 min and then incubated in a 20° C. incubator for 15 min. A 2.5× mixed working solution of MBP protein and ATP was prepared with reaction buffer at concentrations of 0.5 μg/μL and 50 μM, respectively. 4 μL of the mixed working solution of MBP and ATP was added to each well, centrifuged at 1000 rpm for 1 min, and then incubated in a 20° C. incubator for 90 min.
ADP-Glo detection and reading plate: 10 μl ADP-Glo was added to each well of the test plate. The resulting mixture was centrifuged at 1000 rpm for 1 min and incubated in a 20° C. incubator for 60 min. Then 10 μL of the final incubation solution was transferred from the test plate to a new 384-well plate. 10 μL of kinase detection reagent was added to each well, centrifuged at 400 g for 1 min, and incubated in a 20° C. incubator for 60 min Chemiluminescent signals were read by a microplate reader.

Row | Compound | IC50 (HPK1 [1]) | IC50 (HPK1 [2])
1 | CC(C)(O)C(=O)N1CCc2cc(-c3cnc4[nH]cc(C(F)(F)F)c4c3)cc([C@@H]3COCCN3)c2C1 [Compound Z473, (R)-2-hydroxy-2-methyl-1-(8-(morpholin-3-yl)-6-(3-(trifluoromethyl)-1H-pyrrolo[2,3-b]pyridin-5-yl)-3,4-dihydroisoquinolin-2(1H)-yl)propan-1-one] | 143 nM | 0.24 nM
2 | Cc1c[nH]c2ncc(-c3cc4c(c([C@@H]5COCCN5)c3)CN(C(=O)N3CC5CCC3CO5)CC4)cc12 (stereo partly drawn) [Compound Z457, (2-oxa-5-azabicyclo[2.2.2]octan-5-yl)(6-(3-methyl-1H-pyrrolo[2,3-b]pyridin-5-yl)-8-((R)-morpholin-3-yl)-3,4-dihydroisoquinolin-2(1H)-yl)methanone] | 60.9 nM | 0.14 nM
3 | O=C(N1CCc2cc(-c3cnc4[nH]cc(C(F)(F)F)c4n3)cc([C@@H]3COCCN3)c2C1)N1CC2CCC(C1)O2 [Compound Z606, (8-oxa-3-azabicyclo[3.2.1]octan-3-yl)(8-((R)-morpholin-3-yl)6-(7-(trifluoromethyl)-5H-pyrrolo[2,3-b]pyrazin-2-yl)-3,4-dihydroisoquinolin-2(1H)-yl)methanone] | 62.9 nM | 0.25 nM
4 | O=C(N1CCc2cc(-c3cnc4[nH]cc(C(F)(F)F)c4c3)cc([C@@H]3COCCN3)c2C1)N1C2CCC1COC2 [Compound Z611] | 98.9 nM | 0.37 nM
5 | Cc1c[nH]c2ncc(-c3cc4c(c([C@@H]5COCCN5)c3)CN(C(=O)N3C[C@H]5C[C@@H]3CO5)CC4)nc12 [Compound Z607, ((1R,4R)-2-oxa-5-azabicyclo[2.2.1]heptan-5-yl)(6-(7-methyl-5H-pyrrolo[2,3-b]pyrazin-2-yl)-8-((R)-morpholin-3-yl)-3,4-dihydroisoquinolin-2(1H)-yl)methanone] | 76.1 nM | 0.27 nM
6 | Cc1c[nH]c2ncc(-c3cc4c(c([C@@H]5COCCN5)c3)CN(C(=O)N3CCC(F)(F)CC3)CC4)nc12 [Compound Z624, (R)-(4,4-difluoropiperidin-1-yl)(6-(7-methyl-5H-pyrrolo[2,3-b]pyrazin-2-yl)-8-(morpholin-3-yl)-3,4-dihydroisoquinolin-2(1H)-yl)methanone] | 76 nM | 0.36 nM
7 | Cc1c[nH]c2ncc(-c3cc4c(c([C@@H]5COCCN5)c3)CN(C(=O)N3CC[C@H](F)C3)CC4)cc12 [Compound Z488, ((S)-3-fluoropyrrolidin-1-yl)(6-(3-methyl-1H-pyrrolo[2,3-b]pyridin-5-yl)-8-((R)-morpholin-3-yl)-3,4-dihydroisoquinolin-2(1H)-yl)methanone] | 150 nM | 0.21 nM
8 | Cc1c[nH]c2ncc(-c3cc4c(c([C@@H]5COCCN5)c3)CN(C(=O)N3CCC(F)CC3)CC4)nc12 [Compound Z566, (R)-(4-fluoropiperidin-1-yl)(6-(7-methyl-5H-pyrrolo[2,3-b]pyrazin-2-yl)-8-(morpholin-3-yl)-3,4-dihydroisoquinolin-2(1H)-yl)methanone] | 81.8 nM | 0.24 nM
9 | Cc1c[nH]c2ncc(-c3cc4c(c([C@@H]5COCCN5)c3)CN(C(=O)C3CCOCC3)CC4)cc12 [Compound Z375] | 258 nM | 0.59 nM
10 | Cc1c[nH]c2ncc(-c3cc4c(c([C@@H]5COCCN5)c3)CN(C(=O)N3CC(O)CC3(C)C)CC4)cc12 (stereo partly shown) [Compound Z577] | 78.1 nM | 0.25 nM
11 | O=C(N1CCc2cc(-c3cnc4[nH]cc(Cl)c4n3)cc([C@@H]3COCCN3)c2C1)N1C2CCC1COC2 [Compound Z571, (3-oxa-8-azabicyclo[3.2.1]octan-8-yl)(6-(7-chloro-5H-pyrrolo[2,3-b]pyrazin-2-yl)-8-((R)-morpholin-3-yl)-3,4-dihydroisoquinolin-2(1H)-yl)methanone] | 108 nM | 0.49 nM
12 | Cc1c[nH]c2ncc(-c3cc4c(c([C@@H]5COCCN5)c3)CN(C(=O)N3C5CCC3COC5)CC4)nc12 [Compound Z570, (3-oxa-8-azabicyclo[3.2.1]octan-8-yl)(6-(7-methyl-5H-pyrrolo[2,3-b]pyrazin-2-yl)-8-((R)-morpholin-3-yl)-3,4-dihydroisoquinolin-2(1H)-yl)methanone] | 31.9 nM | 0.13 nM
13 | CC(C)c1c[nH]c2ncc(-c3cc4c(c([C@@H]5COCCN5)c3)CN(C(=O)C(C)(C)O)CC4)nc12 [Compound Z541, (R)-2-hydroxy-1-(6-(7-isopropyl-5H-pyrrolo[2,3-b]pyrazin-2-yl)-8-(morpholin-3-yl)-3,4-dihydroisoquinolin-2(1H)-yl)-2-methylpropan-1-one] | 33.7 nM | 0.16 nM
14 | Cc1c[nH]c2ncc(-c3cc4c(c([C@@H]5COCCN5)c3)CN(C(=O)N3C[C@H](C)O[C@@H](C)C3)CC4)cc12 [Compound Z512, ((2S,6S)-2,6-dimethylmorpholine)(6-(3-methyl-1H-pyrrolo[2,3-b]pyridin-5-yl)-8-((R)-morpholin-3-yl)-3,4-dihydroisoquinolin-2-1H-yl)methanone] | 148 nM | 0.35 nM
15 | Cc1c[nH]c2ncc(-c3cc4c(c([C@@H]5CCCN5)c3)CN(C(=O)C(C)O)C4)cc12 (mixture of isomers) [Compound Z382, rac-2-hydroxy-1-(6-(3-methyl-1H-pyrrolo[2,3-b]pyridin-5-yl)-4-((R)-pyrrolidin-2-yl)isoindolin-2-yl)propan-1-one] | 474 nM | 1.35 nM
16 | Cc1c[nH]c2ncc(-c3cc4c(c([C@@H]5COCCN5)c3)CN(C(=O)N3CCOC[C@@H]3C)CC4)cc12 [Compound Z581, (6-(3-methyl-1H-pyrrolo[2,3-b]pyridin-5-yl)-8-((R)-morpholin-3-yl)-3,4-dihydroisoquinolin-2(1H)-yl)((S)-3-methylmorpholino)methanone] | 86.7 nM | 0.24 nM
17 | O=C(N1CCc2cc(-c3cnc4[nH]cc(Cl)c4n3)cc([C@@H]3COCCN3)c2C1)N1CC2CCC(C1)O2 [Compound Z549, (8-oxa-3-azabicyclo[3.2.1]octan-3-yl)(6-(7-chloro-5H-pyrrolo[2,3-b]pyrazin-2-yl)-8-((R)-morpholin-3-yl)-3,4-dihydroisoquinolin-2(1H)-yl)methanone] | 66.3 nM | 0.11 nM
18 | Cc1c[nH]c2ncc(-c3cc4c(c([C@@H]5COCCN5)c3)CN(C(=O)C(C)(C)O)CC4)nc12 [Compound Z507, (R)-1-(6-(7-methyl-5H-pyrrolo[2,3-b]pyrazin-2-yl)-8-(morpholin-3-yl)-3,4-dihydroisoquinolin-2(1H)-yl)-2-hydroxy-2-methylpropan-1-one] | 119 nM | 0.43 nM
19 | Cc1c[nH]c2ncc(-c3cc4c(c([C@@H]5COCCN5)c3)CN(C(=O)N3CCC(F)CC3)CC4)cc12 [Compound Z585, (R)-(4-fluoropiperidin-1-yl)(6-(3-methyl-1H-pyrrolo[2,3-b]pyridin-5-yl)-8-(morpholin-3-yl)-3,4-dihydroisoquinolin-2(1H)-yl)methanone] | 83.2 nM | 0.25 nM
20 | CC(C)c1c[nH]c2ncc(-c3cc4c(c([C@@H]5CCCN5)c3)CN(C(=O)C(C)(C)O)CC4)cc12 [Compound Z416, (S)-2-hydroxy-1-(6-(3-isopropyl-1H-pyrrolo[2,3-b]pyridin-5-yl)-8-(pyrrolidin-2-yl)-3,4-dihydroisoquinolin-2(1H)-yl)-2-methylpropan-1-one] | 63.1 nM | 0.29 nM
21 | Cc1c[nH]c2ncc(-c3cc4c(c([C@@H]5COCCN5)c3)CN(C(=O)N3CCOC[C@@H]3C)CC4)nc12 [Compound Z574, (6-(7-methyl-5H-pyrrolo[2,3-b]pyrazin-2-yl)-8-((R)-morpholin-3-yl)-3,4-dihydroisoquinolin-2(1H)-yl)((S)-3-methylmorpholine)methanone] | 83.9 nM | 0.41 nM
22 | Cc1c[nH]c2ncc(-c3cc4c(c([C@@H]5CCCN5)c3)CN(C(=O)N3CCOC(C(F)(F)F)C3)CC4)cc12 (single isomer, unassigned) [Compound Z491] | 308 nM | 1.29 nM
23 | Cc1c[nH]c2ncc(-c3cc4c(c([C@@H]5COCCN5)c3)CN(C(=O)N3C[C@H]5C[C@@H]3CO5)CC4)cc12 [Compound Z518] | 130 nM | 0.22 nM
24 | O=C(N1CCc2cc(-c3cnc4[nH]cc(Cl)c4n3)cc([C@@H]3COCCN3)c2C1)N1C[C@@H]2CC[C@H]1CO2 (single isomer, unassigned) [Compound Z590] | 61.7 nM | 0.24 nM
25 | Cc1c[nH]c2ncc(-c3cc4c(c([C@@H]5COCCN5)c3)CN(C(=O)N3CC[C@H](F)C3)CC4)nc12 [Compound Z603, ((S)-3-fluoropyrrolidin-1-yl)(6-(7-methyl-5H-pyrrolo[2,3-b]pyrazin-2-yl)-8-((R)-morpholin-3-yl)-3,4-dihydroisoquinolin-2(1H)-yl)methanone] | 67.4 nM | 0.21 nM
26 | Cc1c[nH]c2ncc(-c3cc4c(c([C@@H]5CCCN5)c3)CN(C(=O)c3ccn(C5CC5)n3)CC4)cc12 [Compound Z494, (S)-(1-cyclopropyl-1H-pyrazol-3-yl)(6-(3-methyl-1H-pyrrolo[2,3-b]pyridin-5-yl)-8-(pyrrolidin-2-yl)-3,4-dihydroisoquinolin-2(1H)-yl)methanone] | 453 nM | 0.81 nM
